# Measured values from patent US10543156B2, “Shaping keratin fibres using 2-oxazolidinone compounds” (The Procter & Gamble Company, priority 2015, dated 2020).
# Assay: Hair straightening efficacy on hair switches, expert grading
# Conditions: after 5 wash cycles; for Straightening efficacy Mean grade: 20% active agent in crosslinking composition with 100 ppm 4,5-dibromofluorescein, 100 ppm Eosin Y, water buffered at pH 10, irons at 121° C. with UV light at 380 nm, 8 passes, score on 0-10 scale (0 curly, 10 very straight)
# Protocol: The hair straightening efficacy is tested for the crosslinking compositions described herein. Switches of low lift naturally curly hair are employed. These are shampooed with a Pantene clarifying shampoo to ensure the hair is in a clean state with no residues that could affect the end result. The switches are then rinsed. Excess water is removed from the hair by wringing out the switches. The switches are treated with a crosslinking composition which is pre-prepared in a dark room. The crosslinking composition comprises: active agent as listed in TABLE 2; 100 ppm 4,5-dibromofluorescein; 100 ppm Eosin Y; QSP water buffered at pH 10. These ingredients are mixed on a spinner plate for 30 mins. The crosslinking composition is stored in an amber bottle or a bottle covered in electrical tape to ensure no light access to the crosslinking composition. 0.5 g of crosslinking composition per 1 g hair is employed. The crosslinking composition is left on the hair for 30 minutes. After this time, the hair is blow dried, brushed, and is then mechanically straightened with hybrid light and heat emitting straightening irons (at 250° F. [121° C.] and emitting UV light at 380 nm) with 8 passes.
# The switches are then imaged. To simulate durability, the switches are then given one wash-and-dry cycle. One wash-and-dry cycle involves shampooing with a Hairtrition shampoo (Hairtrition Color Protect sulfate-free shampoo from Zotos), rinsing and then drying in a hot box. Once dry the switches are imaged again. The switches are then given 4 further wash-and-dry cycles. Once dry the switches are imaged again. An expert grader gives the images of the switches a score on a 0-10 scale. The scale is a standard scale set as curly hair having 4-5 nodes of curls is a score of 0 and very straight hair is a 10. Thus, the switches are compared to a normal state of hair.
# Using an expert grader is reliable because the grader is trained on measuring/scaling the configuration of the hair from straight to curly in a consistent way. Numeric data obtained by this method is averaged, and statistical analysis is conducted using JMP statistical software available from SAS Institute at the 87% confidence level.
Structure (SMILES),Straightening efficacy Mean grade,Straightening efficacy compared with the control (in words) (statistical analysis at the 87% confidence level)
O=C1NCCO1 [2-oxazolidinone],3.7,
O=C1OCCN1CCO [N-(hydroxyethyl)-2-oxazolidinone],4.3,significantly better straightening efficacy than the control
CC(=O)N1CCOC1=O [N-acetyl-2-oxazolidinone],3.0,
